Measurements published in US20250381242A1 (INVAIO SCIENCES, INC., priority 2024, published 2025).
No end group written: not given here.

What was measured:
E. coli = test: Bacterial growth inhibition by OD600 absorbance, E. coli; assay type: cell-based, E. coli (DH5-alpha); settings: peptide 10 μM, 24 hours at 37° C., OD 600 nm
Description: (§1) Antimicrobial activity of antimicrobial peptides was tested against the agricultural microbial pests A. tumefaciens, E. amylovora, E. coli, and X. citri, using OD absorbance measurement to detect bacterial growth.
(§2) Antimicrobial peptides were synthesized using solid phase peptide synthesis method and resuspended in 10% DMSO to a 1 mM stock concentration. The stock solution was aliquoted in cryovials and stored at −80° C.
(§3) An aliquot of 198 μl of the bacterial culture was added to each well in a 96-well plate and 2 μl of a 1 mM peptide stock solution was added to each well, for a final treatment concentration of 10 μM of a given peptide. Media only wells were included to control for contamination. The positive controls were 50 μg/ml oxytetracycline hydrochloride and 500 μg/ml streptomycin sulfate. A 0.1% DMSO treatment was included as a negative control.
(§4) An initial absorbance reading of the bacterial suspensions was taken at 600 nm. Then, the bacteria were grown in an incubator at 30° C. (A. tumefaciens, E. amylovora, X. citri) or 37° C. (E. coli) for 24 hours, after which the final absorbance reading was measured. Using the initial and final absorbance reading compared to negative and positive controls, the percent inhibition of the bacterial strain by given peptide treatment was determined.

X. citri = test: Bacterial growth inhibition by OD600 absorbance, X. citri; assay type: cell-based, X. citri subsp. citri (ATCC 49118); settings: peptide 10 μM, 24 hours at 30° C., OD 600 nm
Description: as §1, §2, §3, §4

A. tumefaciens = settings: 24 h, 10 μM
E. amylovora = settings: 24 h, 10 μM

Compound | growth inhibition, E. coli (E. coli) | growth inhibition, X. citri (X. citri) | growth inhibition, A. tumefaciens (A. tumefaciens) | growth inhibition, E. amylovora (E. amylovora)
KKKKKKAAAFAAAAAFAAWAAFAAA [compound 51] | <90% | <90% | <90% | <90%
FKKLKKLFKKILKLK [compound 95] | <90% | <90% | 99.80% | 100.00%
ALKSLLATLSKAKKKKLKTLLAALSK [compound 31] | <90% | 100.00% | 100.00% | 100.00%
KLKKIWWIKVKK [compound 116] | <90% | <90% | <90% | <90%
FFHHIFRGIVHVGKTKHRLVTG [compound 37] | <90% | <90% | <90% | <90%
KLLKQWPIGKLLKKLLKKLLK [compound 42] | 100.00% | 100.00% | 100.00% | <90%
FAKKLAKKLKKLAKKLAK [compound 80] | <90% | <90% | 98.82% | 100.00%
KWKSFLKTLKSPVKTVFYTALKPISS [compound 22] | 100.00% | 100.00% | 100.00% | 100.00%
ALWKKLLKKLLKSAKKLG [compound 77] | 100.00% | 100.00% | 100.00% | 100.00%
ILKKIWKPIKKLF [compound 109] | <90% | <90% | <90% | <90%
WKIKWKIKWKIK [compound 105] | <90% | <90% | <90% | <90%
YSLQMGATAIKQVKKLFKKKGG [compound 56] | <90% | <90% | <90% | <90%
KKIGIWIGIKK [compound 141] | <90% | <90% | <90% | <90%
IRVKIRVKIRVK [compound 128] | 100.00% | <90% | 97.32% | 99.30%
INWKKIKKKVAGML [compound 108] | <90% | 100.00% | <90% | 95.63%
GFWGKLWKPVKKAI [compound 107] | <90% | <90% | <90% | <90%
GWRTLLKKAEVKTVGKLALKHYL [compound 32] | <90% | <90% | <90% | <90%

Compound | growth inhibition, E. coli (E. coli) | growth inhibition, X. citri (X. citri) | growth inhibition, A. tumefaciens (A. tumefaciens) | growth inhibition, E. amylovora (E. amylovora)
KWKLFKKIPLAKKF [compound 100] | <90% | <90% | <90% | <90%
CC(C)C[C@H](NC(=O)[C@H](CCCCN)NC(=O)[C@H](C)NC(=O)[C@H](CC(C)C)NC(=O)[C@H](CCCCN)NC(=O)[C@H](CCCCN)NC(=O)[C@H](C)NC(=O)[C@H](CC(C)C)NC(=O)[C@H](CCCCN)NC(=O)[C@H](C)NC(=O)[C@H](CC(C)C)NC(=O)[C@H](CCCCN)NC(=O)[C@H](Cc1c[nH]cn1)NC(=O)[C@H](C)NC(=O)[C@@H](N)CC(=O)O)C(=O)N[C@@H](C)C(=O)N[C@@H](CCCCN)C(=O)O [compound 97] | <90% | <90% | <90% | <90%
AKRLKKLAKKIWKWK [compound 92] | <90% | <90% | 99.87% | 99.93%
MQFITDLIKKAVDFIKGLFGNK [compound 43] | 94.72% | <90% | <90% | <90%
KRIVARIKAFLR [compound 130] | <90% | <90% | <90% | 100.00%
ILKKLLKKVKSI [compound 136] | <90% | <90% | <90% | <90%
KLKKLLKKWLKLLKKLLK [compound 68] | 100.00% | <90% | <90% | <90%
IGKLFKRIVQRILKFLRNL [compound 63] | 97.14% | <90% | <90% | <90%
ALKSLLKTLSKAKAAKLKTLLKALSK [compound 30] | 98.52% | 100.00% | 100.00% | 100.00%
AKLKAYPLKAKLYP [compound 114] | <90% | <90% | <90% | <90%
GLWSKIKEVGKEAAKAAAKAAGKAALGAVSEAV [compound 16] | 100.00% | 100.00% | 100.00% | 100.00%
GIKFFLKKLKKHI [compound 115] | <90% | 100.00% | <90% | <90%
KKKKWKLFKKIGIGKFL [compound 75] | <90% | 100.00% | <90% | 100.00%
FQWQRNMRKVR [compound 124] | <90% | <90% | <90% | <90%
KKWRKWLAKKKKK [compound 101] | <90% | <90% | <90% | <90%
FPFLKLSLKIPKSAIKSAIKRL [compound 1] | <90% | <90% | <90% | <90%
FFHHIKRGIKHVGKTIHRLVTG [compound 38] | <90% | 100.00% | <90% | 100.00%
